Experiments:
ABUTH [1] = experiment: Post-emergence action against ABUTH; type: in vivo, Abutilon theophrasti; conditions: post-emergence, dosage 80 g/ha, visual assessment about 3 weeks after treatment vs untreated controls
Procedure, shortened: (§1)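 Post-emergence foliar spray on greenhouse plants at the one-leaf stage, using wettable-powder or emulsion-concentrate formulations in water (600 to […], plus 0.2% wetting agent). Damage scored by eye roughly 3 weeks later against untreated plants: 0% = like control, 100% = dead.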

STEME [2] = experiment: Pre-emergence action against STEME; type: in vivo, Stellaria media; conditions: Dosage 320 g/ha, pre-emergence
Procedure, shortened: (§2)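 Seeds sown in sandy loam in wood-fiber pots and covered with soil. Greenhouse growth; visual damage scored after 3 weeks versus untreated controls (100% = dead, 0% = like control).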

AMARE [3] = experiment: Pre-emergence action against AMARE; type: in vivo, Amaranthus retroflexus; conditions: pre-emergence, dosage 320 g/ha, scored visually after 3 weeks vs untreated controls
Procedure, shortened: as §2

AMARE [4] = experiment: Post-emergence action against AMARE; type: in vivo, Amaranthus retroflexus; conditions: post-emergence, dosage 80 g/ha, visual assessment about 3 weeks after treatment vs untreated controls
Procedure, shortened: as §1

AVEFA = experiment: Pre-emergence action against AVEFA; type: in vivo, Avena fatua; conditions: dosage 320 g/ha, scored visually after 3 weeks vs untreated controls
Procedure, shortened: as §2

ABUTH [5] = experiment: Pre-emergence action against ABUTH; type: in vivo, Abutilon theophrasti; conditions: pre-emergence, dosage 320 g/ha, scored visually after 3 weeks vs untreated controls
Procedure, shortened: as §2

STEME [6] = experiment: Post-emergence action against STEME; type: in vivo, Stellaria media; conditions: post-emergence, dosage 80 g/ha
Procedure, shortened: as §1

VIOTR [7] = experiment: Pre-emergence action against VIOTR; type: in vivo, Viola tricolor; conditions: Dosage 320 g/ha, pre-emergence
Procedure, shortened: as §2

VERPE [8] = experiment: Pre-emergence action against VERPE; type: in vivo, Veronica persica; conditions: Dosage 320 g/ha, pre-emergence
Procedure, shortened: as §2

DIGSA = experiment: Pre-emergence action against DIGSA; type: in vivo, Digitaria sanguinalis; conditions: dosage 320 g/ha, scored visually after 3 weeks vs untreated controls
Description: (§3) Seeds of monocotyledonous and dicotyledonous weed plants and crop plants are laid out in sandy loam soil in wood-fiber pots and covered with soil. The compounds of the invention, formulated in the form of wettable powders (WP) or as emulsion concentrates (EC), are then applied to the surface of the covering soil in the form of an aqueous suspension or emulsion at a water application rate equating to […], with addition of 0.2% wetting agent. After the treatment, the pots are placed in a greenhouse and kept under good growth conditions for the trial plants. The damage to the test plants is scored visually after a test period of 3 weeks by comparison with untreated controls (herbicidal activity in percent (%): 100% activity=the plants have died, 0% activity=like control plants).

MATIN [9] = experiment: Pre-emergence action against MATIN; type: in vivo, Matricaria inodora; conditions: Dosage 320 g/ha, pre-emergence
Procedure, shortened: as §2

POLCO [10] = experiment: Pre-emergence action against POLCO; type: in vivo, Polygonum convolvulus; conditions: Fallopia convolvulus, 504 h; Dosage 320 g/ha, pre-emergence
Procedure, shortened: as §2

CYPES = experiment: Post-emergence action against CYPES; type: in vivo, Cyperus esculentus; conditions: Cyperus esculentus, 504 h; post-emergence, dosage 80 g/ha, visual assessment about 3 weeks after treatment vs untreated controls; read-out: Post-emergence action against CYPES (herbicidal action in percent)
Procedure, shortened: as §1

POLCO [11] = experiment: Post-emergence action against POLCO; type: in vivo, Polygonum convolvulus; conditions: Fallopia convolvulus, 504 h; post-emergence, dosage 80 g/ha
Procedure, shortened: as §1

VIOTR [12] = experiment: Post-emergence action against VIOTR; type: in vivo, Viola tricolor; conditions: post-emergence, dosage 80 g/ha
Procedure, shortened: as §1

SETVI [13] = experiment: Pre-emergence action against SETVI; type: in vivo, Setaria viridis; conditions: pre-emergence, dosage 320 g/ha, scored visually after 3 weeks vs untreated controls
Procedure, shortened: as §2

PHBPU [14] = experiment: Post-emergence action against PHBPU; type: in vivo, Pharbitis purpurea; conditions: post-emergence, dosage 80 g/ha
Procedure, shortened: as §1

ECHCG [15] = experiment: Post-emergence action against ECHCG; type: in vivo, Echinochloa crus-galli; conditions: post-emergence, dosage 80 g/ha, visual assessment about 3 weeks after treatment vs untreated controls
Procedure, shortened: as §1

ECHCG [16] = experiment: Pre-emergence action against ECHCG; type: in vivo, Echinochloa crus-galli; conditions: Echinochloa crus-galli, 504 h; pre-emergence, dosage 320 g/ha, scored visually after 3 weeks vs untreated controls; read-out: Pre-emergence action against ECHCG (herbicidal activity)
Procedure, shortened: as §2

HORMU = experiment: Pre-emergence action against HORMU; type: in vivo, Hordeum murinum; conditions: Hordeum murinum, 504 h, Dosage 320 g/ha
Description: as §3

PHBPU [17] = experiment: Pre-emergence action against PHBPU; type: in vivo, Pharbitis purpurea; conditions: Dosage 320 g/ha, pre-emergence
Procedure, shortened: as §2

ALOMY [18] = experiment: Post-emergence action against ALOMY; type: in vivo, Alopecurus myosuroides; conditions: Alopecurus myosuroides, 504 h; Dosage 80 g/ha, post-emergence
Procedure, shortened: as §1

LOLRI = experiment: Pre-emergence action against LOLRI; type: in vivo, Lolium rigidum; conditions: Lolium rigidum, 504 h, dosage 320 g/ha, scored visually after 3 weeks vs untreated controls, read-out: Pre-emergence action against LOLRI (herbicidal activity)
Description: as §3

SETVI [19] = experiment: Post-emergence action against SETVI; type: in vivo, Setaria viridis; conditions: Setaria viridis, 504 h; post-emergence, dosage 80 g/ha, visual assessment about 3 weeks after treatment vs untreated controls; read-out: Post-emergence action against SETVI (herbicidal action in percent)
Procedure, shortened: as §1

VERPE [20] = experiment: Post-emergence action against VERPE; type: in vivo, Veronica persica; conditions: Veronica persica, 504 h, dosage 80 g/ha
Procedure, shortened: as §1

ALOMY [21] = experiment: Pre-emergence action against ALOMY; type: in vivo, Alopecurus myosuroides; conditions: Alopecurus myosuroides, 504 h; dosage 320 g/ha; pre-emergence; scored visually after 3 weeks vs untreated controls; 100% = plants have died, 0% = like control plants; read-out: Pre-emergence action against ALOMY (herbicidal activity in percent)
Procedure, shortened: as §2

MATIN [22] = experiment: Post-emergence action against MATIN; type: in vivo, Matricaria inodora; conditions: post-emergence, dosage 80 g/ha, visual assessment about 3 weeks after treatment vs untreated controls
Procedure, shortened: as §1

Structure (SMILES): CSc1c(C(=O)Nc2nnnn2C)ccc(C(F)(F)F)c1C(=O)C1CCCCC1 [1-286]
- Post-emergence action against ABUTH (herbicidal action in percent) (ABUTH [1]): 90%
- Pre-emergence action against STEME (STEME [2]): 90%
- Pre-emergence action against AMARE (herbicidal activity) (AMARE [3]): 100%
- Post-emergence action against AMARE (herbicidal action in percent) (AMARE [4]): 90%
- Pre-emergence action against AVEFA (herbicidal activity) (AVEFA): 90%
- Pre-emergence action against ABUTH (herbicidal activity) (ABUTH [5]): 100%
- Post-emergence action against STEME (STEME [6]): 90
- Pre-emergence action against VIOTR (VIOTR [7]): 100%
- Pre-emergence action against VERPE (VERPE [8]): 90%
- Pre-emergence action against DIGSA (herbicidal activity) (DIGSA): 100%
- Pre-emergence action against MATIN (MATIN [9]): 90%

Structure (SMILES): CCCn1nnnc1NC(=O)c1ccc(C(F)(F)F)c(C(=O)C2CCCCC2)c1SC [3-281]
- Pre-emergence action against STEME (STEME [2]): 90%
- Pre-emergence action against AMARE (herbicidal activity) (AMARE [3]): 80%
- Post-emergence action against AMARE (herbicidal action in percent) (AMARE [4]): 80%
- Pre-emergence action against ABUTH (herbicidal activity) (ABUTH [5]): 100%
- Pre-emergence action against VIOTR (VIOTR [7]): 100%
- Pre-emergence action against DIGSA (herbicidal activity) (DIGSA): 80%

Structure (SMILES): CSc1c(C(=O)Nc2nnnn2C)ccc(C(F)F)c1C(C)=O [1-65]
- pest or weed control at 80 g/ha (ABUTH [1]; Abutilon theophrasti, 504 h, read-out: Post-emergence action against ABUTH (herbicidal action in percent)): 100%
- pest or weed control at 320 g/ha (STEME [2]; Stellaria media, 504 h): 100%
- pest or weed control at 320 g/ha (AMARE [3]; Amaranthus retroflexus, 504 h, read-out: Pre-emergence action against AMARE (herbicidal activity)): 100%
- pest or weed control at 320 g/ha (POLCO [10]): 100%
- pest or weed control at 80 g/ha (CYPES): 90%
- pest or weed control at 80 g/ha (POLCO [11]): 100%
- pest or weed control at 80 g/ha (VIOTR [12]; Viola tricolor, 504 h): 100%
- pest or weed control at 320 g/ha (SETVI [13]; Setaria viridis, 504 h, read-out: SETVI (Table B8, pre-emergence herbicidal activity)): 100%
- pest or weed control at 80 g/ha (PHBPU [14]; Ipomoea purpurea, 504 h): 100%
- pest or weed control at 80 g/ha (ECHCG [15]; Echinochloa crus-galli, 504 h, read-out: Post-emergence action against ECHCG (herbicidal action in percent)): 100%
- pest or weed control at 80 g/ha (AMARE [4]; Amaranthus retroflexus, 504 h, read-out: Post-emergence action against AMARE (herbicidal action in percent)): 100%
- pest or weed control at 320 g/ha (AVEFA; Avena fatua, 504 h, read-out: Pre-emergence action against AVEFA (herbicidal activity)): 100%
- pest or weed control at 320 g/ha (ECHCG [16]): 100%
- pest or weed control at 320 g/ha (ABUTH [5]; Abutilon theophrasti, 504 h, read-out: Pre-emergence action against ABUTH (herbicidal activity)): 100%
- pest or weed control at 320 g/ha (HORMU): 90%
- pest or weed control at 320 g/ha (PHBPU [17]; Ipomoea purpurea, 504 h): 100%
- pest or weed control at 80 g/ha (STEME [6]; Stellaria media, 504 h): 100%
- pest or weed control at 80 g/ha (ALOMY [18]): 80%
- pest or weed control at 320 g/ha (VIOTR [7]; Viola tricolor, 504 h): 100%
- pest or weed control at 320 g/ha (LOLRI): 80%
- pest or weed control at 320 g/ha (VERPE [8]; Veronica persica, 504 h): 100%
- pest or weed control at 80 g/ha (SETVI [19]): 100%
- pest or weed control at 80 g/ha (VERPE [20]): 100%
- pest or weed control at 320 g/ha (ALOMY [21]): 100%
- pest or weed control at 80 g/ha (MATIN [22]; Tripleurospermum inodorum, 504 h, read-out: Post-emergence action against MATIN (herbicidal action in percent)): 100%
- pest or weed control at 320 g/ha (MATIN [9]; Tripleurospermum inodorum, 504 h): 100%

Structure (SMILES): CCCn1nnnc1NC(=O)c1ccc(C(F)(F)F)c(C(=O)C(F)F)c1Cl [3-163]
- Post-emergence action against ABUTH (herbicidal action in percent) (ABUTH [1]): 80%
- Pre-emergence action against STEME (STEME [2]): 90%
- Pre-emergence action against AMARE (herbicidal activity) (AMARE [3]): 100%
- Post-emergence action against VIOTR (VIOTR [12]): 80
- SETVI (Table B8, pre-emergence herbicidal activity) (SETVI [13]): 100%
- Post-emergence action against PHBPU (PHBPU [14]): 90
- Post-emergence action against ECHCG (herbicidal action in percent) (ECHCG [15]): 80%
- Post-emergence action against AMARE (herbicidal action in percent) (AMARE [4]): 100%
- Pre-emergence action against ABUTH (herbicidal activity) (ABUTH [5]): 100%
- Pre-emergence action against PHBPU (PHBPU [17]): 80%
- Post-emergence action against STEME (STEME [6]): 100
- Pre-emergence action against VIOTR (VIOTR [7]): 100%
- Post-emergence action against MATIN (herbicidal action in percent) (MATIN [22]): 90%
- Pre-emergence action against DIGSA (herbicidal activity) (DIGSA): 100%
- Pre-emergence action against MATIN (MATIN [9]): 100%
